In assay [1] the test system is β-catenin-TCF-mediated reporter transcription activity in Colo 205 cells. The assay can be described thus: Colo 205 reporter assay (TCF/LEF luciferase). The following applies: five hours after addition of compound. In kind it is cell-based. The procedure, abridged: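 Luciferase signal from a TCF/LEF-driven reporter, stably integrated in Colo 205 colon cancer cells, was measured 5 h after compound addition.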
On the technique in general: Reporter assays use an easily measured gene product as a stand-in for the process of interest.

Assay [2] addresses HEK293 membranes over-expressing WFS-1 (Homo sapiens (Human), UniProt O76024). The assay can be described thus: Radioligand displacement assay (tritiated Compound 136 probe). In kind it is binding. Particulars: displacement of tritiated Compound 136. The procedure, abridged: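 WFS-1-overexpressing HEK293 membranes were preincubated 10 min with compound, then tritiated probe was added for 90 min at room temperature. Bound probe was collected by filtration on PEI-pretreated GF/B filters, washed and scintillation-counted. IC50 came from a 3-parameter fit of bound probe vs compound concentration.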

[3] abbreviates: Homo sapiens, COLO 205, 5 h, Colo 205 TCF/LEF luciferase reporter, read-out: TCF reporter Colo205 IC50.
The mark [4] stands for this setting: Colo 205 TCF/LEF luciferase reporter, read-out: TCF reporter Colo205 IC50.

Read-outs that look alike come from different tables or passages of the source. A value given as a limit tells only on which side of the number the result lay.

HEK293 membranes over-expressing WFS-1, sequence (O76024 whole entry): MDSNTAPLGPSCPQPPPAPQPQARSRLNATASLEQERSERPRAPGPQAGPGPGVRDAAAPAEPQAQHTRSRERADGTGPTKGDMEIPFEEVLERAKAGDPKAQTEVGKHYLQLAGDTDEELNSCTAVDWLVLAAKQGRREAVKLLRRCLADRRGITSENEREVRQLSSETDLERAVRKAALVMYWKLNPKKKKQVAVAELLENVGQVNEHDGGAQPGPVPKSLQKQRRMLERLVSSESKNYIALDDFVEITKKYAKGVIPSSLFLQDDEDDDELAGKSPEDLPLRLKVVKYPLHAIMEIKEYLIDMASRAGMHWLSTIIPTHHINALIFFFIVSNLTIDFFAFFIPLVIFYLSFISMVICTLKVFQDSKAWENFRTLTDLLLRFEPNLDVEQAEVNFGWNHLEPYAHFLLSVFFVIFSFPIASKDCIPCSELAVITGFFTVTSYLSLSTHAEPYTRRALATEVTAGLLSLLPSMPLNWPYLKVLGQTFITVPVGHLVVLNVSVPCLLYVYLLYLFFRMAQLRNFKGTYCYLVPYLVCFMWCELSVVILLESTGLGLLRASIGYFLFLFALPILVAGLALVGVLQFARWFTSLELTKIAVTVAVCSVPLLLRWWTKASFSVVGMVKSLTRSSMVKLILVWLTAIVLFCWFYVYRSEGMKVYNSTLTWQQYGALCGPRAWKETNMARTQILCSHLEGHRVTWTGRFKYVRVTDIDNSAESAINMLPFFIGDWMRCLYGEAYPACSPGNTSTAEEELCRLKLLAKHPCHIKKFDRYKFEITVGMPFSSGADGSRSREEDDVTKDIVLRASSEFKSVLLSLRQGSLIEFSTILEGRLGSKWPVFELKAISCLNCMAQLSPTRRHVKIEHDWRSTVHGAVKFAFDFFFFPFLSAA

Regarding `Cc1nc(N[C@H]2C[C@H](Oc3cc(F)c(F)c(F)c3)C2)nc2c1N(C)C(=O)[C@H](C)N2C` [Compound 253, (7S)-4,5,7,8-tetramethyl-2-((trans-3-(3,4,5-trifluorophenoxy)cyclobutyl)amino)-7,8-dihydropteridin-6(5H)-one], the IC50 in assay [1] (setting [3]) is below 300 nM; in assay [2], below 60 nM.

`Cc1nc(C(F)(F)F)ccc1Cn1cc(CNc2nc(C)c3c(n2)N(C)[C@@H](C)C(=O)N3)cn1` [Compound 188, (S)-4,7,8-trimethyl-2-(((1-((2-methyl-6-(trifluoromethyl)pyridin-3-yl)methyl)-1H-pyrazol-4-yl)methyl)amino)-7,8-dihydropteridin-6(5H)-one]: the figures for the IC50 in assay [1] (setting [3]) and in assay [2] were below 300 nM and 60 to 600 nM, respectively.

On to `Cc1nc(N[C@H]2C[C@H](Sc3cc(F)c(F)c(F)c3)C2)nc2c1NC(=O)[C@H](C)N2C` [Compound 329, (7S)-4,7,8-trimethyl-2-((trans-3-((3,4,5-trifluorophenyl)thio)-cyclobutyl)amino)-7,8-dihydropteridin-6(5H)-one], for which the IC50 was below 300 nM in assay [1] (setting [3]) and 60 to 600 nM in assay [2].

Regarding `Cc1nc(N[C@H]2CC[C@H](Oc3ccc(C(F)(F)F)nc3)C2)nc2c1NC(=O)[C@H](C)N2C` (single isomer, unassigned) [Compound 376], the results for the IC50 in assay [1] (setting [4]) and in assay [2] were 1000 to 5000 nM and 60 to 600 nM, respectively.

Take `Cc1nc(NCc2cnn(Cc3ccc(Cl)nc3)c2)nc2c1NC(=O)[C@H](C(C)C)N2C` [Compound 409, (7S)-2-(((1-((6-chloropyridin-3-yl)methyl)-1H-pyrazol-4-yl)methyl)amino)-7-isopropyl-4,8-dimethyl-7,8-dihydropteridin-6(5H)-one]: the IC50 is below 300 nM in assay [1] (Homo sapiens, COLO 205, 5 h, Colo 205 cells with stably transfected TCF/LEF luciferase reporter, read-out: TCF reporter Colo205) and below 60 nM in assay [2].

Turning to `Cc1nc(N[C@H]2C[C@@H](Sc3cc(F)c(F)c(F)c3)C2)nc2c1NC(=O)[C@H](C)N2C` [Compound 332, (7S)-4,7,8-trimethyl-2-((cis-3-((3,4,5-trifluorophenyl)thio)cyclobutyl)amino)-7,8-dihydropteridin-6(5H)-one], the IC50 was below 300 nM in assay [1] (setting [3]) and 60 to 600 nM in assay [2].

For the molecule `Cc1nc(N[C@@H]2CC[C@@H](n3ccc(C(F)(F)F)n3)C2)nc2c1NC(=O)[C@H](C)N2C` (single isomer, unassigned) [Compound 311], the values for the IC50 in assay [1] (setting [3]) and in assay [2] were below 300 nM and 60 to 600 nM, respectively.

Consider `Cc1nc(NCc2cnn(Cc3cc(C(F)(F)F)nn3C)c2)nc2c1NC(=O)[C@H](C)N2C` [Compound 160, (7S)-4,7,8-trimethyl-2-(((1-((1-methyl-3-(trifluoromethyl)-1H-pyrazol-5-yl)methyl)-1H-pyrazol-4-yl)methyl)amino)-7,8-dihydropteridin-6(5H)-one], for which the IC50 in assay [1] (setting [3]) is below 300 nM; in assay [2], 60 to 600 nM.

`Cc1nc(NCc2cnn(Cc3cccc(C(C)C)c3)c2)nc2c1NC(=O)[C@H](C)N2C` [Compound 80, (7S)-2-(((1-(3-isopropylbenzyl)-1H-pyrazol-4-yl)methyl)amino)-4,7,8-trimethyl-7,8-dihydropteridin-6(5H)-one]: the IC50 in assay [1] (setting [3]) was below 300 nM; in assay [2], below 60 nM.

Regarding `Cc1nc(NCc2cnn(Cc3ccc(F)nc3)c2)nc2c1NC(=O)[C@H](C1CC1)N2C` [Compound 421, (7S)-7-cyclopropyl-2-(((1-((6-fluoropyridin-3-yl)methyl)-1H-pyrazol-4-yl)methyl)amino)-4,8-dimethyl-7,8-dihydropteridin-6(511)-one], the IC50 in assay [1] (setting [4]) is below 300 nM; in assay [2] it was 60 to 600 nM.

On to `Cc1nc(N[C@@H]2CC[C@@H](Oc3cc(F)c(F)c(F)c3)C2)nc2c1N(C)C(=O)[C@H](C)N2C` [Compound 272, (S)-4,5,7,8-tetramethyl-2-(((1R,3R)-3-(3,4,5-trifluorophenoxy)cyclopentyl)amino)-7,8-dihydropteridin-6(5H)-one], for which the IC50 in assay [1] (setting [3]) is below 300 nM; in assay [2], 60 to 600 nM.

For the molecule `Cc1nc(NCc2cnn(Cc3ccc(F)nc3)c2)nc2c1NC(=O)[C@H](C)N2C` [Compound 77], the IC50 is below 300 nM in assay [1] (setting [3]) and 60 to 600 nM in assay [2].

Regarding `Cc1cc(F)ncc1Cn1cc(CNc2nc(C)c3c(n2)N(C)[C@@H](C(C)C)C(=O)N3)cn1` [Compound 423, (7S)-2-(((1-((6-fluoro-4-methylpyridin-3-yl)methyl)-1H-pyrazol-4-yl)methyl)amino)-7-isopropyl-4,8-dimethyl-7,8-dihydropteridin-6(5H)-one], the IC50 in assay [1] (setting [3]) was below 300 nM; in assay [2] it was 60 to 600 nM.

Take `COc1c(F)cc(Cn2cc(CNc3nc(C)c4c(n3)N(C)[C@@H](C)C(=O)N4)cn2)cc1F` [Compound 46, (7S)-2-(((1-(3,5-difluoro-4-methoxybenzyl)-1H-pyrazol-4-yl)methyl)amino)-4,7,8-trimethyl-7,8-dihydropteridin-6(5H)-one]: the values for the IC50 in assay [1] (setting [3]) and in assay [2] were below 300 nM and below 60 nM, respectively.

In the case of `Cc1ccc(Cn2cc(CNc3nc(C)c4c(n3)N(C)[C@@H](C)C(=O)N4)cn2)cn1` [Compound 173, (7S)-4,7,8-trimethyl-2-(((1-((6-methylpyridin-3-yl)methyl)-1H-pyrazol-4-yl)methyl)amino)-7,8-dihydropteridin-6(5H)-one], the figures for the IC50 in assay [1] (setting [3]) and in assay [2] were 1000 to 5000 nM and 600 to 3000 nM, respectively.

`Cc1nc(NCc2cnn(Cc3cc(F)c(F)c(F)c3)c2)nc2c1NC(=O)[C@H](C)N2C` [Compound 122, (7S)-4,7,8-trimethyl-2-(((1-(3,4,5-trifluorobenzyl)-1H-pyrazol-4-yl)methyl)amino)-7,8-dihydropteridin-6(5H)-one]: the IC50 in assay [1] (setting [3]) is below 300 nM; in assay [2], below 60 nM.

Consider `Cc1nc(NCc2cnn(Cc3ccc(C(F)(F)F)nc3C(C)C)c2)nc2c1NC(=O)[C@H](C)N2C` [Compound 388, (7S)-2-(((1-((2-isopropyl-6-(trifluoromethyl)pyridin-3-yl)methyl)-1H-pyrazol-4-yl)methyl)amino)-4,7,8-trimethyl-7,8-dihydropteridin-6(5H)-one], for which the IC50 in assay [1] (setting [3]) was below 300 nM; in assay [2], below 60 nM.

Take `Cc1nc(N[C@H]2CC[C@H](n3ccc(C(F)(F)F)n3)C2)nc2c1NC(=O)[C@H](C)N2C` (single isomer, unassigned) [Compound 310]: the IC50 was 1000 to 5000 nM in assay [1] (setting [3]) and 600 to 3000 nM in assay [2].

In the case of `Cc1ncc(Cn2cc(CNc3nc(C)c4c(n3)N(C)[C@@H](C)C(=O)N4)cn2)cn1` [Compound 163, (7S)-4,7,8-trimethyl-2-(((1-((2-methylpyrimidin-5-yl)methyl)-1H-pyrazol-4-yl)methyl)amino)-7,8-dihydropteridin-6(5H)-one], the figures for the IC50 in assay [1] (setting [3]) and in assay [2] were 1000 to 5000 nM and at least 3000 nM, respectively.

In the case of `Cc1nc(NCc2cnn(Cc3ccc(F)nc3)c2)nc2c1NC(=O)[C@H](C(C)C)N2C` [Compound 384, (7S)-2-(((1-((6-fluoropyridin-3-yl)methyl)-1H-pyrazol-4-yl)methyl)amino)-7-isopropyl-4,8-dimethyl-7,8-dihydropteridin-6(5H)-one], the IC50 was below 300 nM in assay [1] (setting [3]) and 60 to 600 nM in assay [2].

Consider `Cc1nc(N[C@H]2C[C@@H](Sc3ccc(F)cc3)C2)nc2c1N(C)C(=O)[C@H](C)N2C` [Compound 305, (7S)-2-((cis-3-((4-fluorophenyl)thio)cyclobutyl)amino)-4,5,7,8-tetramethyl-7,8-dihydropteridin-6(5H)-one], for which the results for the IC50 in assay [1] (setting [3]) and in assay [2] were 300 to 1000 nM and 60 to 600 nM, respectively.

For the origin of these results see patent US20230312587A1, “PTERIDINONE COMPOUNDS AND USES THEREOF” (Vertex Pharmaceutical Incorporated, priority 2018, published 2023).
